The values below come from patent US12194040B2, “FAK inhibitor and drug combination thereof” (HINOVA PHARMACEUTICALS INC., priority 2018, dated 2025).

The nature of data set [1]: Pharmacokinetic test in rats (PO, 10 mpk). The class given is in vivo. The following applies: male SD rats, PO (gavage), plasma. On the procedure:
An appropriate amount of test drug (10 mg) was accurately weighed, and 0.25 ml of N,N-dimethylacetamide (DMA) was first added to dissolve it, then 0.5% sodium carboxymethyl cellulose (CMC-Na) was slowly added to 5 ml. The mixture was sonicated, vortexed, and mixed well. 0.2 ml of the final solution prepared above was taken out and stored at −20° C. for the concentration determination.
After fasted overnight (free drinking water), three healthy adult male SD rats (180-250 g, purchased from Chengdu Dossy Experimental Animal Co., Ltd.) were administered by gavaging with a volume of 5 ml/kg; Prior to administration, as well as 0.5 h, 1 h, 2 h, 4 h, 6 h, 8 h, 12 h, 24 h after administration, 0.1 ml of blood was collected from the retroorbital venous plexus, centrifuged at 4° C. for 5 min to separate the plasma, and stored at −20° C. for testing. Then, LC/MS/MS method was used to determine the concentration of the test compound in the plasma.

For data set [2], the system named is PAN-02 tumor model. In words: Pharmacodynamic experiment on PAN02 tumor animal model. It is filed as in vivo, C57BL/6 mice. The following applies: PAN-02, group 4: compound 44 25 mg/kg i.g. BID; 33 days. From the text: The PAN-02 cells in the logarithmic growth phase were collected, washed twice with PBS, and then resuspended in pre-cooled PBS for inoculation. The experimental animals were C57BL/6 mice, females, purchased from Beijing Vital River Experimental Animal Technology Co., Ltd. C57BL/6 mice were adapted to the laboratory environment for 3 days. PAN-02 cells were subcutaneously inoculated into the right ribs, and the amount of cells inoculated was 1×10^6/mouse. When the tumor grew to about 100 mm^3, they will be screened and randomly grouped. Each group included 8 mice. According to Table 4, mice were grouped and administrated as the dosing regimen. The day of grouping and administration was defined as day 1, and the administration period was 33 days.

The test system of data set [3] is MC38 tumor model. In words: Pharmacodynamic experiment on MC38 tumor animal model. It is filed as in vivo, C57BL/6 mice. The following applies: MC38, group 4: compound 44 50 mg/kg p.o. QD × 21; day 18. On the procedure: Cell culture: MC-38 cells are cultured in DMEM medium containing 10% fetal bovine serum (FBS). MC-38 cells in logarithmic growth phase were collected, and resuspended in HBSS to a concentration suitable for subcutaneous tumor inoculation in C57BL/6 mice.
Experimental animals: C57BL/6 mice, female, 6-8 weeks old, weighing about 18-20 g, 96 mice, purchased from Beijing Vital River Experimental Animal Technology Co., Ltd.
Tumor cell inoculation: Tumor cells in logarithmic growth phase were collected, and the cell concentration was adjusted to 5×10^6/mL with HBSS, then 0.1 mL was subcutaneously inoculated on the right side of each mouse near the back, that is, 5×10^5/mouse. Then, the tumor volume was observed and measured. When the average tumor volume of the mice grew to 50-100 mm^3, the tumor-bearing mice were randomly grouped according to the tumor volume and administered. The detailed information was shown in Table 3, and the day of grouping and administration was defined as day 0.
Calculation of tumor volume: The mice were sacrificed on the 18th day, the tumor was taken out, the tumor volume was measured, and the tumor inhibition rate of each group was calculated.

The target of data set [4] is FAK enzyme (Homo sapiens, UniProt Q05397). In words: Inhibitory activity on FAK enzyme (HTRF, Sa-XL665 / TK antibody-Eu3+). The class given is biochemical.
FAK enzyme, sequence (Q05397 whole entry, species assumed): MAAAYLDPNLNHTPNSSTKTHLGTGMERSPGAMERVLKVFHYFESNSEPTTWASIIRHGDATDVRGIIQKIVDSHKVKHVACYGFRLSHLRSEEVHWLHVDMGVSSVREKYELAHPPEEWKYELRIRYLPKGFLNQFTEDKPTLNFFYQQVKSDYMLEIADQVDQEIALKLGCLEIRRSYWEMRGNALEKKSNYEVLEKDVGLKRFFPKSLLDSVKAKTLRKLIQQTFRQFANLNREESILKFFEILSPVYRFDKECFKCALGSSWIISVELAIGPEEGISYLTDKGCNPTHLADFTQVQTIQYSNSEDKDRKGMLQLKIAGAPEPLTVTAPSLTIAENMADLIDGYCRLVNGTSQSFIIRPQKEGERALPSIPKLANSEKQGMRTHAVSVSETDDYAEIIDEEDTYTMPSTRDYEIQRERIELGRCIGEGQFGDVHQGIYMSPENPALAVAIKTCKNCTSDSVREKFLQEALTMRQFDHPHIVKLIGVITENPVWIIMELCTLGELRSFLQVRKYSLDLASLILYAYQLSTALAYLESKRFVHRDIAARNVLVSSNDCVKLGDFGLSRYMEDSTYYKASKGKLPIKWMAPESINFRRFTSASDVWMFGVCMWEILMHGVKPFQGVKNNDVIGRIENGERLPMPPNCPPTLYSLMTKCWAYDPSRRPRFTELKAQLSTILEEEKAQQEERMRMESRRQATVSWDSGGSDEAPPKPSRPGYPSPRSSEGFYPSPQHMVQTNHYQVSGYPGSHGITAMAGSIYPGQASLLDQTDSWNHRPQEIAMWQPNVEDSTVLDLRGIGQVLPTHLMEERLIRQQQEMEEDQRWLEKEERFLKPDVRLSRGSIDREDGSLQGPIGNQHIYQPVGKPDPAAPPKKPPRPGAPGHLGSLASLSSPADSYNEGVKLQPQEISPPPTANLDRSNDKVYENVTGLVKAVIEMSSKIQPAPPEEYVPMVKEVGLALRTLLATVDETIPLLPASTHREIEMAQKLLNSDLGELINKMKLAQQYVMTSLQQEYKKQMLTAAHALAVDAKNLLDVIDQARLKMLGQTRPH
Method: By referring to literature methods (Cancer Res. 2008, 68, 1935), the experiment of inhibitory activity on FAX enzyme was carried out. The details are as follows: the test compound was diluted to 1000 nM, and then subjected to 1:3 serial dilution with DMSO. 0.1 L of the solution was transferred into a 384-well plate, and 2 replicate wells were set up for each concentration. 5 µL of 2 FAK enzyme solution was added, then centrifuged at 1000 rpm for 1 min, and incubated at 25° C. for 15 min. 5 L of 2× substrate solution was added and incubate at 25° C. for 60 min. Then, 5 µL of Sa-XL665 solution and 5 μL of TK antibody-Eu3+ were added, and centrifuged at 1000 rpm for 1 min, then incubated at 25° C. for 60 min. Finally, Envision 2104 plate reader was used to read the fluorescence signal, and calculate the half inhibitory concentration IC50 of each compound on FAX enzyme.

Regarding `[2H]C([2H])([2H])NC(=O)c1ccc(Nc2ncc(C(F)(F)F)c(NCc3nccnc3N(C)S(C)(=O)=O)n2)cc1` [Compound 25, N-trideuteromethyl-4-((4-(((3-(N-methanesulfonamido)pyrazin-2-yl)methyl)amino)-5-(trifluoromethyl)pyrimidin-2-yl)amino)benzamide], the “half life t1/2” value in data set [1] stood at 1.75 h. With `[2H]C([2H])([2H])NC(=O)c1ccc(Nc2ncc(C(F)(F)F)c(NCc3nccnc3N(C([2H])([2H])[2H])S(C)(=O)=O)n2)cc1` [Compound 44, N-trideuteromethyl-4-((4-(((3-(N-trideuteromethylmethanesulfonamido)pyrazin-2-yl)methyl)amino)-5-(trifluoromethyl)pyrimidin-2-yl)amino)benzamide], the Tumor inhibition rate in data set [2] turned out to be 66%; in data set [3], 26.9%. In data set [4], “N-deuteromethyl-4-((4-(((3-(N-deuteromethanesulfonamido) pyrazin-2-yl)deuteromethyl)amino)-5-(trifluoromethyl)pyrimidine-2-yl)amino)benzamide [Compound 45]” registered an IC50 of 0.15 nM.
